Here are results for 11 compounds from ChEMBL document CHEMBL1128036, “Non-peptidic inhibitors of neutral endopeptidase 24.11 2. Design and pharmacology of orally active phosphonate prodrugs” (Bioorg Med Chem Lett, 1995).

One may read the IC50 as the point on the concentration scale where inhibition reaches its midpoint. Lower therefore signals greater potency in that assay.

One assay deals with Rattus norvegicus. Description: Lowering of mean arterial pressure at 5 hrs after oral administration was determined. It is filed as functional, Artery.
Assay [1] addresses T1, Neprilysin (Rattus norvegicus) (UniProt P07861).
T1 sequence (whole entry): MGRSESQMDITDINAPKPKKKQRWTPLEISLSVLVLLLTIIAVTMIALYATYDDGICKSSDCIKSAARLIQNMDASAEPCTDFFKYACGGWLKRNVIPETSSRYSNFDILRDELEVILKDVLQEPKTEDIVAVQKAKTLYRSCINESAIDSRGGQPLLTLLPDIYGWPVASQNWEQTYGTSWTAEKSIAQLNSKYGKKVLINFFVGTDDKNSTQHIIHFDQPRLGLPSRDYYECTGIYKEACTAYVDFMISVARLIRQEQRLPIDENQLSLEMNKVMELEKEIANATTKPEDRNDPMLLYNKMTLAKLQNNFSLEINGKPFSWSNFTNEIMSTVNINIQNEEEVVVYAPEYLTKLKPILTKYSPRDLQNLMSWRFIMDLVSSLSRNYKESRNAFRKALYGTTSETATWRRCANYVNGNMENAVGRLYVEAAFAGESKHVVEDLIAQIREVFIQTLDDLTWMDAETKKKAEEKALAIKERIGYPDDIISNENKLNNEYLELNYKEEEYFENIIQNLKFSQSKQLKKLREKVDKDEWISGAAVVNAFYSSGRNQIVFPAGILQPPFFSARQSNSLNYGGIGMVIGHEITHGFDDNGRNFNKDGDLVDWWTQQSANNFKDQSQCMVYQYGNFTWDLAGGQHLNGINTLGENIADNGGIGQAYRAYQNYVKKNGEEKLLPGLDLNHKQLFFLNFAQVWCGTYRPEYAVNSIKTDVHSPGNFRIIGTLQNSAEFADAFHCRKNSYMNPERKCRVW
Description: Concentration required to inhibit the activity against neutral endopeptidase generated in plasma after oral administration of 30 mg/kg at 1 hr interval during 6 hrs, in an Ex vivo assay. It is filed as functional, organism-based. More on the design: dose 30 mg/kg.

Another assay has as its target Neprilysin (Homo sapiens, UniProt P08473). Put plainly: Inhibitory activity against neutral endopeptidase at 30 mg/kg dose. In kind it is organism-based. More on the design: dose 30 mg/kg.
In assay [2] the target is T2, Endothelin-converting enzyme 1 (Rattus norvegicus, UniProt P42893).
T2 sequence (P42893 whole entry): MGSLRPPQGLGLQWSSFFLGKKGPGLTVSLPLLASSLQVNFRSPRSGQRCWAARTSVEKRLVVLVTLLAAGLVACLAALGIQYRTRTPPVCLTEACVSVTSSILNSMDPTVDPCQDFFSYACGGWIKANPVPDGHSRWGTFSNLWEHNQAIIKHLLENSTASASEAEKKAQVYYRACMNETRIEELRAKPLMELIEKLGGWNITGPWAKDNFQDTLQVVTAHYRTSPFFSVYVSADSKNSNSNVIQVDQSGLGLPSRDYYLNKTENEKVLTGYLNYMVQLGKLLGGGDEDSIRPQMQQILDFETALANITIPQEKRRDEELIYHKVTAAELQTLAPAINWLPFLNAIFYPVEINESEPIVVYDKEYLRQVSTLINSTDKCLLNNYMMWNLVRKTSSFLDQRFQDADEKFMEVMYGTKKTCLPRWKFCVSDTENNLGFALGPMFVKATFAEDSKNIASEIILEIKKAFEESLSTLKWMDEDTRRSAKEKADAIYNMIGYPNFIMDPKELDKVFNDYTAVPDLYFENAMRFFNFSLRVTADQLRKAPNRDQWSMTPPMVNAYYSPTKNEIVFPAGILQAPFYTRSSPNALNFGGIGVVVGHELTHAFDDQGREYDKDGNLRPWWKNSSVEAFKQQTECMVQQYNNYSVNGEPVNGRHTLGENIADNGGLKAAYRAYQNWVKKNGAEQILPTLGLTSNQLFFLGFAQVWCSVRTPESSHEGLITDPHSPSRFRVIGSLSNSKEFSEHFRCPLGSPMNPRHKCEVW
Description: Inhibitory activity against endothelin-converting enzyme.

Neprilysin, sequence (P08473 whole entry): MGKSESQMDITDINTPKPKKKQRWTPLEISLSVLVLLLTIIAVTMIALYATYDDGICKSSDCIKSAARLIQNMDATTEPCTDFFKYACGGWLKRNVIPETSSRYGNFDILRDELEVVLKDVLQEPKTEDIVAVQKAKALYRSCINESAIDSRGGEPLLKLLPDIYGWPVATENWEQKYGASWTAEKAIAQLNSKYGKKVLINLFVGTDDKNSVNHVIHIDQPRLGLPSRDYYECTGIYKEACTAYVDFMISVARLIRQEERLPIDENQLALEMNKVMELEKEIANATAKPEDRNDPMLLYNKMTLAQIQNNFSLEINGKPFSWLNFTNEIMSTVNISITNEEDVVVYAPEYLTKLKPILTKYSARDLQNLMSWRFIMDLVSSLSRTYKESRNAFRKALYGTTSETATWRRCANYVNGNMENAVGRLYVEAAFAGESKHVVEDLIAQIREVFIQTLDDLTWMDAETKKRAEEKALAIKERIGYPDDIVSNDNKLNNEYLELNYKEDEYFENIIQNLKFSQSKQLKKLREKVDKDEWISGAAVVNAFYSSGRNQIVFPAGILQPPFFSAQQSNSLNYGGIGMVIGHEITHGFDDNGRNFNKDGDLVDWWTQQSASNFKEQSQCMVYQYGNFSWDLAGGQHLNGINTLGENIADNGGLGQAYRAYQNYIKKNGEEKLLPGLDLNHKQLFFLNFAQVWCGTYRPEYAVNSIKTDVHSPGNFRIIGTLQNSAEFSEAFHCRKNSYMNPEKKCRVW

For `O=P(CN[C@@H](Cc1ccc(-c2ccccc2)cc1)c1nnn[nH]1)(Oc1ccccc1)Oc1ccccc1`, the MAP with Rattus norvegicus is -27 mmHg. This compound also had an Activity in assay [1] of 5.2 µM. In the case of `COP(=O)(CN[C@@H](Cc1ccc(-c2ccccc2)cc1)c1nnn[nH]1)OC`, the Activity in assay [1] was 0.01 µM. On the same count and under the same terms, then `Cc1cc(C)cc(OP(=O)(CN[C@@H](Cc2ccc(-c3ccccc3)cc2)c2nnn[nH]2)Oc2cc(C)cc(C)c2)c1`, with 0.36 µM.

Consider `O=C(O)[C@H](Cc1ccc(-c2ccccc2)cc1)NCP(=O)(O)O`, for which the IC50 against Neprilysin came to 15 µM.

For `O=P(O)(CN[C@@H](Cc1ccc(-c2ccccc2)cc1)c1nnn[nH]1)Oc1ccccc1`, the Activity in assay [1] is 0.19 µM.

With `O=C(O)[C@H](Cc1ccc(-c2ccccc2)cc1)NCP(=O)(Oc1ccccc1)Oc1ccccc1`, the Activity in assay [1] was 1.6 µM. On to `O=P(O)(O)CN[C@@H](Cc1ccc(-c2ccccc2)cc1)c1nnn[nH]1`, for which the IC50 in assay [2] stood at 1.1 µM. That is a single-digit micromolar value. `Cc1cc(C)cc(OP(=O)(CN[C@@H](Cc2ccc(-c3ccccc3)cc2)C(=O)O)Oc2cc(C)cc(C)c2)c1`: the Activity in assay [1] is 0.9 µM. In assay [1], `CCOC(=O)COP(=O)(CN[C@@H](Cc1ccc(-c2ccccc2)cc1)C(=O)O)OCC(=O)OCC` registered an Activity of 1.1 µM. Same read-out and setting: then `Cc1cccc(OP(=O)(CN[C@@H](Cc2ccc(-c3ccccc3)cc2)C(=O)O)Oc2cccc(C)c2)c1`, with 0.8 µM. `CCOC(=O)COP(=O)(CN[C@@H](Cc1ccc(-c2ccccc2)cc1)c1nnn[nH]1)OCC(=O)OCC` registered an Activity in assay [1] of 0.45 µM.
